Data taken from patent US20160257927A1, “THREE-DIMENSIONAL CELL CULTURE USING NANOFIBER SLURRIES AND NANO-STRUCTURED SUBSTRATES” (UCL BUSINESS PLC, priority 2015, published 2016).

Tested on: Lung cancer A549 cells
Assay: Chemosensitivity to anticancer drugs in 2D TCP and 3D scaffold (MTS CellTiter 96 cell viability)
Format: cell-based, human
Details: 48 hrs treatment; 2D TCP vs 3D CA/Rayon, 1:9 scaffold; 25000 cells seeded
Description: FIG. 18. Chemosensitivity of cancer cell lines in response to 48 hrs treatment with anticancer drugs when cultured in 2D Tissue Culture Plates (TCP) and 3D CA/Rayon, 1:9 scaffold.
25000 cells of tested cell lines were seeded in 2D TCP and 3D scaffold. Cells were treated with anticancer drugs for 48 hrs and then cell viability was measured using MTS CellTiter 96® Aqueous One Solution assay (Promega).

Structure (SMILES)	chemosensitivity (cell viability) of A549 cells
O=c1[nH]cc(F)c(=O)[nH]1 [5-fluorouracil]	more sensitive to 5-fluorouracil and doxorubicin in 2D TCP than in 3D scaffolds
COc1cccc2c1C(=O)c1c(O)c3c(c(O)c1C2=O)C[C@@](O)(C(=O)CO)C[C@@H]3O[C@H]1C[C@H](N)[C@H](O)[C@H](C)O1 [doxorubicin]	more sensitive to 5-fluorouracil and doxorubicin in 2D TCP than in 3D scaffolds
